Laboratory results published in US20240366581A1 (Hoffmann-La Roche Inc., priority 2022, published 2024).

Columns and labels:
Format in all cases: biochemical
SIK1 = SIK1 (Homo sapiens (Human), UniProt P57059); assay: SIK1 enzymatic activity assay, RapidFire mass spectrometry (CHK-peptide phosphorylation); details: 5 nM SIK1, CHK-peptide, ATP, 30 min pre-incubation, 45 min reaction, RapidFire MS; read-out: SIK1 RF IC50
Description: (§1) In the presence of SIK2 (resp. SIK1 or SIK3) and ATP the CHK-peptide ([…] with C-terminal arginine amide modification) were phosphorylated at one of the four feasible serine's. Only one phosphorylation is observed under the assay conditions. 60 nl of each compound dilution series (12 point; dilution factor 3, generally 30 μM to 170 pM) in DMSO were transferred by acoustic dispensing to the assay plate and 30 min pre-incubated (ambient temperature) after the addition of 5 μl SIK1 (5 nM) resp. 5 μl SIK2 (0.5 nM) or 7 μl SIK3 (1.5 nM) in assay-buffer (12.5 mM HEPES (pH 7.0), 10 mM magnesium acetate, 0.005% BSA). 10 μM CHK-peptide solution and 5 μl 100 μM ATP for SIK1 & SIK2 resp. 3 μl for SIK3 in assay-buffer were added and incubated ambient for 45 min. 40 μl 0.125% formic acid in water were added to quench the reaction. RapidFire (RF) Mass Spectrometry was utilized for data generation as described below. The multiple charged species (3-5 charges) for the phosphorylated and non-phosphorylated form measured by MRM (Multiple Reaction Monitoring; API5000 or 6500+) or EIC (Extracted Ion Current; QToF) were summed up and the ratio calculated (sum phosphorylated species/sum all species) for data evaluation. Normalization was performed by Genedata software based on the non-inhibition control DMSO and the commercially available SIK inhibitor @ 1 μM YKL-05-099 (CAS number 1936529-65-5). The results of the assay are expressed in half-maximal inhibitory concentrations (IC50s) and are summarized below in Table 1.
(§2) Samples were aspirated by vacuum for max. 600 ms and loaded to C4-cartridge (Agilent; #G9203A) for 3000 ms@1.5 ml/min with 0.1% formic acid in water. Afterwards samples were transferred to the API5000 (API6500+) or QToF mass spectrometer for 4000 ms@1.25 ml/min with 90% acetonitrile; 10% water; 0.007% TFA; 0.093 formic acid. The cartridge was reconditioned for additional 500 ms with 0.1% formic acid in water
(§3) All MS analyses using the following MS-setup in MRM mode: Electrospray positive; Ion Spray Voltage: 4000V; Temperature: 550° C.; Collision Gas: 5; Curtain Gas: 15; Gas1: 40; Gas 2: 42; EP: 10
(§4) All MS analyses using the following MS-setup in Mode MS: Dual AJS Electrospray positive; VCap: 3000V; Drying & Sheath gas: 340° C.@81/min; Nebulizer: 60 psig; Nozzle Voltage: 2000V; Fragmentor: 130V; Skimmer: 35V; Oct1 RF Vpp: 700V; Ref masses on@5spectra/s

SIK2 = SIK2 (Homo sapiens (Human), UniProt Q9H0K1); assay: SIK2 enzymatic activity assay, RapidFire mass spectrometry (CHK-peptide phosphorylation); details: 0.5 nM SIK2, CHK-peptide, ATP, 30 min pre-incubation, 45 min reaction, RapidFire MS; read-out: SIK2 RF IC50
Description: as §1, §2, §3, §4

SIK3 = SIK3 (Homo sapiens (Human), UniProt Q9Y2K2); assay: SIK3 enzymatic activity assay, RapidFire mass spectrometry (CHK-peptide phosphorylation); details: 1.5 nM SIK3, CHK-peptide, ATP, 30 min pre-incubation, 45 min reaction, RapidFire MS; read-out: SIK3 RF IC50
Description: as §1, §2, §3, §4

SIK2, sequence (Q9H0K1 whole entry): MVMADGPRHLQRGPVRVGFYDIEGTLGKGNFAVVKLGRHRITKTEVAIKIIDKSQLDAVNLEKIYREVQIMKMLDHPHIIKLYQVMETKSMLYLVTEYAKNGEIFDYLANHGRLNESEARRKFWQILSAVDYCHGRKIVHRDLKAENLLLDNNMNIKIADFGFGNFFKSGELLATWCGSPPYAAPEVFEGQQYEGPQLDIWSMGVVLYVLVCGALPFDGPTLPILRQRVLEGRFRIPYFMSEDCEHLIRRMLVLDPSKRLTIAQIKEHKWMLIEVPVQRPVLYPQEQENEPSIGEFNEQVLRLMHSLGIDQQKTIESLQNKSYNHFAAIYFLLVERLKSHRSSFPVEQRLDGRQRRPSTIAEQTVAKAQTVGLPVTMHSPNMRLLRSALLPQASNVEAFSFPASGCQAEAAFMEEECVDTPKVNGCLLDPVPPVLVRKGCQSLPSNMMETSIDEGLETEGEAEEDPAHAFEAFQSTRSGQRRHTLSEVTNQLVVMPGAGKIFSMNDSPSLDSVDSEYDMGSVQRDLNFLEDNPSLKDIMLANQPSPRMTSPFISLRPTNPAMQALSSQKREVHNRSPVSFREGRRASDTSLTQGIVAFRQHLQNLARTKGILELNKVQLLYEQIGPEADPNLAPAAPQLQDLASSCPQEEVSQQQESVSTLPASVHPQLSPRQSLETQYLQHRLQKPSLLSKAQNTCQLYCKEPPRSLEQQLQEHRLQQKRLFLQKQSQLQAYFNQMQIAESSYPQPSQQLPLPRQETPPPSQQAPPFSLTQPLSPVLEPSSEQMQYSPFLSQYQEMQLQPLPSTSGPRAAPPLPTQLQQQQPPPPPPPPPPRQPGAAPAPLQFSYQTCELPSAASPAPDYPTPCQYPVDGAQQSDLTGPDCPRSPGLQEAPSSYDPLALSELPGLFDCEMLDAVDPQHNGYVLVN
SIK1, sequence (P57059 whole entry): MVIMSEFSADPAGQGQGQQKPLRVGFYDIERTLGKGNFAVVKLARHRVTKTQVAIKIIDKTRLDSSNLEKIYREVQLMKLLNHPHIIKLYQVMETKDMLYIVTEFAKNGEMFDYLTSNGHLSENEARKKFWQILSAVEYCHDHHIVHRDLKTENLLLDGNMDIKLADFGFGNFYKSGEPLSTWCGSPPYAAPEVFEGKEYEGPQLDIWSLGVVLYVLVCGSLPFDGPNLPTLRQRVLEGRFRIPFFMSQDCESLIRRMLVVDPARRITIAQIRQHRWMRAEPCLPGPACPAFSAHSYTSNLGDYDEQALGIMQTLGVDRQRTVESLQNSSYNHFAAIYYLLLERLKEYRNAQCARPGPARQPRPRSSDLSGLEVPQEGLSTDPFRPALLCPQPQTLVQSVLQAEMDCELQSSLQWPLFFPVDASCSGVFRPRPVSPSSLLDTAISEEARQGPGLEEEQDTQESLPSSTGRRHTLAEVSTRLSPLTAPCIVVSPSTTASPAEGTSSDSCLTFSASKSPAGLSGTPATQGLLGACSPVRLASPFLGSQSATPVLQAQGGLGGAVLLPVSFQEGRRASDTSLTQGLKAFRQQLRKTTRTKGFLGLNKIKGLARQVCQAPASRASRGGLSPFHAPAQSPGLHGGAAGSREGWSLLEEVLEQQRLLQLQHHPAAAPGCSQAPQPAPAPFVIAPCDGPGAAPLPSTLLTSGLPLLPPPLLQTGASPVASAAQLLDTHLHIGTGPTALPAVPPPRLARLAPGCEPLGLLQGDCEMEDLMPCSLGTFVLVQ
SIK3, sequence (Q9Y2K2 whole entry): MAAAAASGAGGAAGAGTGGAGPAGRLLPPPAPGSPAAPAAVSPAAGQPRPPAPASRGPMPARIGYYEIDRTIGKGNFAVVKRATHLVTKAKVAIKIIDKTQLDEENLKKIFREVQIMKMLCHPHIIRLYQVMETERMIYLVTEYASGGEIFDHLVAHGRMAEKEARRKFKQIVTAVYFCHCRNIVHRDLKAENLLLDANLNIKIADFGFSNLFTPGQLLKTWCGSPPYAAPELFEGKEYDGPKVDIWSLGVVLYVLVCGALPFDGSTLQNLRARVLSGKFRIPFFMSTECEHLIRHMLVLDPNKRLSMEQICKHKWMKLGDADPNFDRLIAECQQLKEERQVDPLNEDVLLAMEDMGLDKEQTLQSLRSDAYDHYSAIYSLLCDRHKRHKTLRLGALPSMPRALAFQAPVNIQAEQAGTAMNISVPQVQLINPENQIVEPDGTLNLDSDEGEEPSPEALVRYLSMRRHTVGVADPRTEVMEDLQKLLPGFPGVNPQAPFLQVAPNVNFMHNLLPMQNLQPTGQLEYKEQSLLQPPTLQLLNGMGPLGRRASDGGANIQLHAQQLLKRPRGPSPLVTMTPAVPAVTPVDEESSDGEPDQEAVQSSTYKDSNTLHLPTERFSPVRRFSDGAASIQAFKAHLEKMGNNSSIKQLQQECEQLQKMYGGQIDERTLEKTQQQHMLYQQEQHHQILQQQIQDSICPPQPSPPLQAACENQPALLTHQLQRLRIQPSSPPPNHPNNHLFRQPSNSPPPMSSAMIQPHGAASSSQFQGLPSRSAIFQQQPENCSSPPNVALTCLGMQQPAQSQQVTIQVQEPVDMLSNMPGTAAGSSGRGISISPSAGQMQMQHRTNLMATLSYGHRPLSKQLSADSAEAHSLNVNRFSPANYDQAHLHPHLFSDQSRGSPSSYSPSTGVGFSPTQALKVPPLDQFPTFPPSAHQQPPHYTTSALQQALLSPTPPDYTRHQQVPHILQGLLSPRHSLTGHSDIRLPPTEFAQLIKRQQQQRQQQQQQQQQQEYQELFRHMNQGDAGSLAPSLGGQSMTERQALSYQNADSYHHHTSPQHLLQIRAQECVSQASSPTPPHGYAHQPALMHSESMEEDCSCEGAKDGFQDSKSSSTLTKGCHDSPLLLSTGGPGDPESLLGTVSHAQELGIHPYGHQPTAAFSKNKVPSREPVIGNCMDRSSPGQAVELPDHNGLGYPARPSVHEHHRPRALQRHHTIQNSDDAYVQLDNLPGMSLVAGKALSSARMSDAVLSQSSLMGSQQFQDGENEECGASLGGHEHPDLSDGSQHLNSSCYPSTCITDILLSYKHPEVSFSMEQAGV

| Compound | IC50 (SIK1) [nM] | IC50 (SIK2) [nM] | IC50 (SIK3) [nM] |
| --- | --- | --- | --- |
| Cc1cc(C#N)nn1-c1nc(-n2cnc3cc(N[C@H]4CNC[C@H]4F)ccc32)ccc1C(N)=O [Example 25, 2-(3-Cyano-5-methyl-pyrazol-1-yl)-6-[5-[[(3S,4R)-4-fluoropyrrolidin-3-yl]amino]benzimidazol-1-yl]pyridine-3-carboxamide; formic acid] | 914 | 171 | 257 |
| COC(=O)c1ccc(-n2cnc3cc(Nc4ccc(C)nn4)ccc32)nc1-n1nc(OC)cc1C [Example 26, Methyl 2-(3-methoxy-5-methyl-pyrazol-1-yl)-6-[5-[(6-methylpyridazin-3-yl)amino]benzimidazol-1-yl]pyridine-3-carboxylate] | 17800 | 154 | 49.4 |
| CC(=O)c1ccc(-n2cnc3ccc(Nc4ccc(C)nn4)cc32)nc1-n1nc(C#N)cc1C [Example 28, 1-[3-Acetyl-6-[6-[(6-methylpyridazin-3-yl)amino]benzimidazol-1-yl]-2-pyridyl]-5-methyl-pyrazole-3-carbonitrile] | 308 | 111 | 184 |
| CC(=O)c1ccc(-n2cnc3cc4c(cc32)C(C)(C)C(=O)N4c2ccc(C)nn2)nc1-n1nc(C#N)cc1C [Example 35, 1-[3-acetyl-6-[6-keto-7,7-dimethyl-5-(6-methylpyridazin-3-yl)pyrrolo[2,3-f]benzimidazol-1-yl]-2-pyridyl]-5-methyl-pyrazole-3-carbonitrile] | 101 | 115 | 150 |
| Cc1ccc(Nc2ccc3c(c2)ncn3-c2ccc(C=O)c(-n3nc(C#N)cc3C)n2)nn1 [Example 36, 1-[3-formyl-6-[5-[(6-methylpyridazin-3-yl)amino]benzimidazol-1-yl]-2-pyridyl]-5-methyl-pyrazole-3-carbonitrile] | 274 | 5.2 | 0.7 |
| COc1nn(C)cc1-c1ccc2c(c1)ncn2-c1ccc(C(C)=O)c(-n2nc(C#N)cc2C)n1 [Example 38, 1-[3-acetyl-6-[5-(3-methoxy-1-methyl-pyrazol-4-yl)benzimidazol-1-yl]-2-pyridyl]-5-methyl-pyrazole-3-carbonitrile] | 3490 | 754 | 1790 |
| Cc1ccc(Nc2ccc3ncn(-c4ccc(C=O)c(-n5nc(C#N)cc5C)n4)c3c2)nn1 [Example 40, 1-[3-formyl-6-[6-[(6-methylpyridazin-3-yl)amino]benzimidazol-1-yl]-2-pyridyl]-5-methyl-pyrazole-3-carbonitrile] | > 30000 | 536 | 8800 |

Next, values leading:

| IC50 (SIK1) [nM] | IC50 (SIK2) [nM] | IC50 (SIK3) [nM] | Compound |
| --- | --- | --- | --- |
| 669 | 6.6 | 8.1 | CC(=O)c1ccc(-n2cnc3cc(Nc4ccc(C)nn4)ccc32)nc1-n1nc(C#N)cc1C [Example 27, 1-[3-Acetyl-6-[5-[(6-methylpyridazin-3-yl)amino]benzimidazol-1-yl]-2-pyridyl]-5-methyl-pyrazole-3-carbonitrile] |
| 13 | 9.1 | 1230 | CC(=O)c1ccc(-n2cnc3cc4c(cc32)CCN4)nc1-n1nc(C#N)cc1C [Example 31, 1-[3-acetyl-6-(6,7-dihydro-5H-pyrrolo[2,3-f]benzimidazol-1-yl)-2-pyridyl]-5-methyl-pyrazole-3-carbonitrile] |
| 43 | 19.9 | 988 | Cc1ccc(Nc2ccc3ncn(-c4ccc(C=O)c(N5C[C@H](C#N)C[C@@H]5C)n4)c3c2)nn1 [Example 32, (3R,5S)-1-[3-formyl-6-[6-[(6-methylpyridazin-3-yl)amino]benzimidazol-1-yl]-2-pyridyl]-5-methyl-pyrrolidine-3-carbonitrile] |
| 76 | 95.1 | 562 | Cc1ccc(Nc2ccc3c(c2)ncn3-c2ccc(C=O)c(N3C[C@H](C#N)C[C@@H]3C)n2)nn1 [Example 33, (3R,5S)-1-[3-formyl-6-[5-[(6-methylpyridazin-3-yl)amino]benzimidazol-1-yl]-2-pyridyl]-5-methyl-pyrrolidine-3-carbonitrile] |
| 2330 | 41.4 | 31.7 | Cc1ccc(Nc2ccc3c(c2)ncn3-c2ccc(C(=O)C(F)(F)F)c(-n3nc(C#N)cc3C)n2)nn1 [Example 34, 5-methyl-1-[6-[5-[(6-methylpyridazin-3-yl)amino]benzimidazol-1-yl]-3-(2,2,2-trifluoroacetyl)-2-pyridyl]pyrazole-3-carbonitrile] |
| > 10000 | 502 | 208 | CC(=O)c1ccc(-n2cnc3cc(Nc4cccn(C)c4=O)ccc32)nc1-n1nc(C#N)cc1C [Example 37, 1-[3-acetyl-6-[5-[(2-keto-1-methyl-3-pyridyl)amino]benzimidazol-1-yl]-2-pyridyl]-5-methyl-pyrazole-3-carbonitrile] |
| 6580 | 43.7 | 728 | CC(=O)c1ccc(-n2cnc3cc(Nc4ccc(C5CCCN5)nn4)ccc32)nc1-n1nc(C#N)cc1C (stereo not drawn) [Example 39, 1-[3-acetyl-6-[5-[(6-pyrrolidin-2-ylpyridazin-3-yl)amino]benzimidazol-1-yl]-2-pyridyl]-5-methyl-pyrazole-3-carbonitrile] |
